Test results published in patent US10729668B2, “Ketobutyrate compounds and compositions for treating age-related symptoms and diseases” (The Regents of the University of California, priority 2014, dated 2020).

What was measured:
[1] = tested on: NADH dehydrogenase (Complex I); assay: NADH dehydrogenase (Complex I) driven coupling assay, isolated liver mitochondria (pyruvate and malate); assay type: biochemical, mouse; settings: respiration driven by pyruvate and malate
Protocol: (§1) Animal studies were performed under approved UCLA animal research protocols. Mitochondria from 3-month-old C57BL/6 mice were isolated. Briefly, livers were extracted, minced at 4° C. in MSHE+BSA (70 mM sucrose, 210 mM mannitol, 5 mM HEPES, 1 mM EGTA, and 0.5% fatty acid free BSA, pH 7.2), and rinsed several times to remove blood. All subsequent steps were performed on ice or at 4° C. The tissue was disrupted in 10 volumes of MSHE+BSA with a glass Dounce homogenizer (5-6 strokes) and the homogenate was centrifuged at 800×g for 10 minutes to remove tissue debris and nuclei. The supernatant was decanted through a cell strainer and centrifuged at 8,000×g for 10 minutes. The dark mitochondrial pellet was resuspended in MSHE+BSA and re-centrifuged at 8,000×g for 10 minutes. The final mitochondrial pellet was resuspended in 30 μl of MAS buffer (70 mM sucrose, 220 mM mannitol, 10 mM KH2PO4, 5 mM MgCl2, 2 mM HEPES, 1 mM EGTA, and 0.2% fatty acid free BSA, pH 7.2). Isolated mitochondrial respiration was measured by running coupling and electron flow assays as described. […]
(§2) Mitochondrial respiration was measured by running coupling and electron flow assays. […]

C2C12 Cells = assay: Cellular ROS measurement with H2DCF-DA; assay type: cell-based, mouse; settings: 3 hours of drug treatment
Protocol: Measurement of ROS. C2C12 cells were seeded in 96-well plates at density of 250,000 cells/mL. Reactive oxygen species (ROS) levels were measured using 2′, 7′-dichlorodihydrofluorescein diacetate (H2DCF-DA) after 3 hours of drug treatment.

NADH dehydrogenase = assay: Electron flow assay, isolated liver mitochondria; assay type: biochemical, mouse
Protocol: Animal studies were performed under approved UCLA animal research protocols. Mitochondria from 3-month-old C57BL/6 mice were isolated. Briefly, livers were extracted, minced at 4° C. in MSHE+BSA (70 mM sucrose, 210 mM mannitol, 5 mM HEPES, 1 mM EGTA, and 0.5% fatty acid free BSA, pH 7.2), and rinsed several times to remove blood. All subsequent steps were performed on ice or at 4° C. The tissue was disrupted in 10 volumes of MSHE+BSA with a glass Dounce homogenizer (5-6 strokes) and the homogenate was centrifuged at 800×g for 10 minutes to remove tissue debris and nuclei. The supernatant was decanted through a cell strainer and centrifuged at 8,000×g for 10 minutes. […] Isolated mitochondrial respiration was measured by running coupling and electron flow assays as described. […] After basal readings, the sequential injections were as follows: 2 μM rotenone (Complex I inhibitor), 10 mM succinate (Complex II substrate), 4 μM antimycin A (Complex III inhibitor), and 10 mM/100 μM ascorbate/tetramethylphenylenediamine (Complex IV substrate). […]

Complex II = target: T1, Complex II (Mus musculus, UniProt Q8K2B3+Q9CQA3+Q9CXV1+Q9CZB0); assay: Complex II driven coupling assay, isolated liver mitochondria (succinate and rotenone); assay type: biochemical; settings: succinate supplemented
T1 construct: Mitochondria were isolated from mouse liver as described earlier; from tissue; host or cells: liver mitochondria of 3-month-old C57BL/6 mice
T1 sequence (Q8K2B3 43-664): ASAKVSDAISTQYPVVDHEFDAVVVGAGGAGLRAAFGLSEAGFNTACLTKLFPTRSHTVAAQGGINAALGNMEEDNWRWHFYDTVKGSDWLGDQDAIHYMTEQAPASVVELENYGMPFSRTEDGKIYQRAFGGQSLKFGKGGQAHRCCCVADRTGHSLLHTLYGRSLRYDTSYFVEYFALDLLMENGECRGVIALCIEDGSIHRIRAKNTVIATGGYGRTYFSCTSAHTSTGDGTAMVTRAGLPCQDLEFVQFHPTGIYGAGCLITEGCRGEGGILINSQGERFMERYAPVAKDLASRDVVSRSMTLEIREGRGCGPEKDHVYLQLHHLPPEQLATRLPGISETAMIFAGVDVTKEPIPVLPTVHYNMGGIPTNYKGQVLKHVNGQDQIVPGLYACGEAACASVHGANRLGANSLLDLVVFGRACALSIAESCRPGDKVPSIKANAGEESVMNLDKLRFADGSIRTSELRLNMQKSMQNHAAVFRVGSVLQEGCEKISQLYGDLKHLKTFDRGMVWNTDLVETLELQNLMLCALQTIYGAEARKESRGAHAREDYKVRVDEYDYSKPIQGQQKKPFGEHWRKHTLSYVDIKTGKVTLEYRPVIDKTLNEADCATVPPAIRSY
T1 sequence (Q9CQA3 31-282): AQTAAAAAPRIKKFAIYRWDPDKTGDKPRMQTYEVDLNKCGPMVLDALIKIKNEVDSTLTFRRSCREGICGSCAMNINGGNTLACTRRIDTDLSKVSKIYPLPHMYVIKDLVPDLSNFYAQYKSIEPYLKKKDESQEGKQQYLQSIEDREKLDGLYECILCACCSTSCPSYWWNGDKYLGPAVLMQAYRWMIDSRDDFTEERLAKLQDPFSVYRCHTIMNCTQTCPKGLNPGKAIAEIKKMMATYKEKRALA
T1 sequence (Q9CZB0 30-169): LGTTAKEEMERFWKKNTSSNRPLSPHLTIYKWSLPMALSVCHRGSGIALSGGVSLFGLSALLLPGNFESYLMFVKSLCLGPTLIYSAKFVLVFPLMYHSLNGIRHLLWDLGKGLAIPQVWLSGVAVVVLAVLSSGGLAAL
T1 sequence (Q9CXV1 57-159): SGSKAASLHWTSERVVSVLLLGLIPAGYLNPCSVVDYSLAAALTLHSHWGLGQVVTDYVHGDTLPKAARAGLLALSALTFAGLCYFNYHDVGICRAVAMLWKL
Protocol: as §1, §2

[2] = tested on: cardiomyocytes of neonatal rats; assay: Catecholamine (ISO, PE) induced hypertrophy of cardiomyocytes; assay type: cell-based, rat; settings: 1 mM
Source text: In additional experiments, cardiomyocytes of neonatal rats were isolated by collagenase digestion and cultured overnight in DMEM containing 10% FCS, and then culture medium was changed to serum-free high glucose DMEM with supplement of ITS (insulin, transferrin, and sodiumselenite).
Catecholamine-induced cardiac hypertrophy.

CCC(=O)C(=O)O [α-KB, α-ketobutyrate]
ADP-induced and FCCP-induced respiration [1]: significant decrease | cellular ROS (C2C12 Cells): increases the cellular ROS | respiration in electron flow assay (NADH dehydrogenase): only NADH dehydrogenase related respiration is inhibited | mitochondrial respiration, Complex II-driven coupling (Complex II): no effect | induced overexpression of ANF and BNP [2]: suppressed | ISO- and PE-induced hypertrophy ([2]; 48 hours): completely abolished
